Consider 16 molecules from patent publication US9758524B2, “4-imidazopyridazin-1-yl-benzamides as Btk inhibitors” (Merck Sharp & Dohme B.V., priority 2011, dated 2017).

The target of one assay is FynT enzyme (Homo sapiens (Human), UniProt P06241). The experiment in a line: FynT enzyme activity (IMAP fluorescence polarization assay). Format: biochemical. The settings on record: 60 min pre-incubation, 0.2 μM ATP. The essentials: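 Human FynT pre-incubated with compounds 60 min at room temperature, then reacted 2 h at room temperature with fluorescein-labelled p34cdc2 peptide (100 nM final). Stopped with IMAP binding solution; fluorescence polarization read after 60 min. Activity as % of ±ATP control difference; EC50 by curve fitting.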
FynT enzyme, sequence (P06241 other isoform, or with tags, fused parts or gaps): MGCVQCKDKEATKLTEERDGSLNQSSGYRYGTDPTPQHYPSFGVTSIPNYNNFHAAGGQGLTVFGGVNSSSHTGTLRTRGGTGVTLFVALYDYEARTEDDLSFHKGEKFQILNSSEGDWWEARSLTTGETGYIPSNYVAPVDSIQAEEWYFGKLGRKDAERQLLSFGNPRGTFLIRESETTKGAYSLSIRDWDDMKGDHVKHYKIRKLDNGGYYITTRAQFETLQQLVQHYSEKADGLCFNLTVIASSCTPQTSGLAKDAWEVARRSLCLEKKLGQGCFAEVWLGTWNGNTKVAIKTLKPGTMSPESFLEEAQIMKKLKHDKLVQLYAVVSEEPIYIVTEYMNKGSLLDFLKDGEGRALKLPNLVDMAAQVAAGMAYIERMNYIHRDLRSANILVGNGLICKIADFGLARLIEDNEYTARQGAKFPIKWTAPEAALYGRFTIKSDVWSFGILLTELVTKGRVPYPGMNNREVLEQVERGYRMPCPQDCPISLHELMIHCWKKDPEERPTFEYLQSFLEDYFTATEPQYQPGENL

The next assay concerns the target Btk enzyme (His-Btk) (Homo sapiens (Human), UniProt Q06187). The experiment in a line: Btk enzyme activity (IMAP fluorescence polarization assay).
The next assay concerns the target Lck enzyme (Homo sapiens (Human), UniProt P06239). Description: Lck enzyme activity (IMAP fluorescence polarization assay).
A further assay deals with Src enzyme (Homo sapiens (Human), UniProt P12931). Description: Src enzyme activity (IMAP fluorescence polarization assay). The settings on record: read-out: EC50 Src activity values; IMAP, 60 min pre-incubation, 4 μM ATP.
Src enzyme, sequence (P12931 whole entry, looked up): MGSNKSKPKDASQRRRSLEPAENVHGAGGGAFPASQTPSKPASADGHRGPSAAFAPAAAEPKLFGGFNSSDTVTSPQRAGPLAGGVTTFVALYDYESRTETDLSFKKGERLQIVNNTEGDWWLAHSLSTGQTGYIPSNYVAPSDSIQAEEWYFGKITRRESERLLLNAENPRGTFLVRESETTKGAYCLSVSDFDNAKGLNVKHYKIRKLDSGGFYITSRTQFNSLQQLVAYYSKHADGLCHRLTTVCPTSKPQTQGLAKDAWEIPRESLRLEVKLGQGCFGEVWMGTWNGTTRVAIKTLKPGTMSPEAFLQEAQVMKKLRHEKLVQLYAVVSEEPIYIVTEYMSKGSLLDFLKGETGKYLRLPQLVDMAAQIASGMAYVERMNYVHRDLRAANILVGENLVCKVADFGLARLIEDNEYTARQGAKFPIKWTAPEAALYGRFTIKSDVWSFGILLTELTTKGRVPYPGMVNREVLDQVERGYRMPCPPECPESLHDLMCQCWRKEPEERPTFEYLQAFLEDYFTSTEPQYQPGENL
The target in another assay is Lyn enzyme (Homo sapiens (Human), UniProt P07948). The experiment in a line: Lyn enzyme activity (IMAP fluorescence polarization assay).
Lyn enzyme, sequence (P07948 whole entry): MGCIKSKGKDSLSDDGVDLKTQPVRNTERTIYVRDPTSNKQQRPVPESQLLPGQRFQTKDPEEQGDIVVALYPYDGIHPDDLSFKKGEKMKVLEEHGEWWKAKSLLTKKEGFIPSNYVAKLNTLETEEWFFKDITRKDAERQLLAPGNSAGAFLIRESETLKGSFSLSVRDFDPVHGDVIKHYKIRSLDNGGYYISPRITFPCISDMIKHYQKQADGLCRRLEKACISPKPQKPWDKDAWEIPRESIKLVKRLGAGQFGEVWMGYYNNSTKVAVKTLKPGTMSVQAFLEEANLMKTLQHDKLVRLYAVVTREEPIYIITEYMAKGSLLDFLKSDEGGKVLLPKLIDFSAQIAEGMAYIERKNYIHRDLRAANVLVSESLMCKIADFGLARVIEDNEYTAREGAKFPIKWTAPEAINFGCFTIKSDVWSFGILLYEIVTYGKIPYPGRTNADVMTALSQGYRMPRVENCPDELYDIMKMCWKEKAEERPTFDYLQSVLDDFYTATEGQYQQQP
Setting [1] is: IMAP, 60 min pre-incubation, 5 μM ATP, bin bound in μM.
Where [2] appears, read: read-out: EC50 Lck activity values, IMAP, 60 min pre-incubation, 6 μM ATP, bin bound in μM.
Setting [3] is: read-out: EC50 Lyn activity values, 60 min pre-incubation, 2 μM ATP, bin bound in μM.
Setting [4] is: IMAP, 60 min pre-incubation, 5 μM ATP, bin bound in nM.
[5] abbreviates: IMAP, 60 min pre-incubation, 6 μM ATP, bin bound in μM.
Setting [6] is: read-out: EC50 Btk activity values, IMAP, 60 min pre-incubation, 5 μM ATP, bin bound in nM.

Where “and” joins values, the source holds several entries; their conditions need not be identical. Identical values can stand only once. Like-named read-outs stand apart in the source and are kept apart here.

Lck enzyme, sequence (P06239 whole entry): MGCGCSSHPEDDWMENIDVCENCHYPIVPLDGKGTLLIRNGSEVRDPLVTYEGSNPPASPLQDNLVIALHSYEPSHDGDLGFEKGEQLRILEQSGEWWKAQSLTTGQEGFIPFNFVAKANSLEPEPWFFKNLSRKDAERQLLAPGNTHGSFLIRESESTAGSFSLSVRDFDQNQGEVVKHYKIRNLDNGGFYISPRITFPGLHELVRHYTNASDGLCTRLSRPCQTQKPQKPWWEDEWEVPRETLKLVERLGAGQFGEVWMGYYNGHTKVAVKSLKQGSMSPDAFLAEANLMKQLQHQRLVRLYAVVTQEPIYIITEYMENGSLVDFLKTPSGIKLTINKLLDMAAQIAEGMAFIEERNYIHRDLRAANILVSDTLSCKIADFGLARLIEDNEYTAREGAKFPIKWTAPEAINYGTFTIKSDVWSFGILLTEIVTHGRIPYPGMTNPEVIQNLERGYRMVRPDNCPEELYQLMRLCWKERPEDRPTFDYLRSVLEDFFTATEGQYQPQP
Btk enzyme (His-Btk), sequence (Q06187 whole entry): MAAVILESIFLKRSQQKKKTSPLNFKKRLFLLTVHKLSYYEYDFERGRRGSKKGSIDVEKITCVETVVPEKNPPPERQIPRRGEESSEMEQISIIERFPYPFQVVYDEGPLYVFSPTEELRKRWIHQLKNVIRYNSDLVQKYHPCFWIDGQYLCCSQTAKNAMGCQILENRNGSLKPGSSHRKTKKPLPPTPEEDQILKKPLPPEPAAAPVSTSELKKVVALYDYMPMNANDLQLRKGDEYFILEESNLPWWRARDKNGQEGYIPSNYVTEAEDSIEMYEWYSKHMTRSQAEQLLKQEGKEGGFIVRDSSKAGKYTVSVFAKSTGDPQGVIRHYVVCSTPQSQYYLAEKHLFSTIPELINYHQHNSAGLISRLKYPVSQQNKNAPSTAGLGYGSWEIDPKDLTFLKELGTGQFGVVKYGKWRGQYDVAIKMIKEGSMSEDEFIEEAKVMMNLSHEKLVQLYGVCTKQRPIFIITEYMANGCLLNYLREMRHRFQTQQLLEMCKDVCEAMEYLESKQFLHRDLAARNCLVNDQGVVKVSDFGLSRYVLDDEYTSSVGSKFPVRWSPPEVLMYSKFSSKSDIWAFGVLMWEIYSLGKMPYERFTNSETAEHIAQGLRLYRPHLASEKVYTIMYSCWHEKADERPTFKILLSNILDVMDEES

As for `COC/C=C/C(=O)N1CCCC[C@H]1c1nc(-c2ccc(C(=O)Nc3ccon3)cc2)c2c(N)nccn12` [Example 54, (S,E)-4-(8-amino-3-(1-(4-methoxybut-2-enoyl)piperidin-2-yl)imidazo[1,5-a]pyrazin-1-yl)-N-(isoxazol-3-yl)benzamide], the EC50 was ≥ 1000 nM on FynT enzyme; 100 to 1000 nM on Btk enzyme (His-Btk); ≥ 1 µM on Lck enzyme (setting [2]); ≥ 1000 nM on Src enzyme; ≥ 1 µM at Lyn enzyme (setting [3]). The “EC50 Btk activity values” at Btk enzyme (His-Btk) (setting [1]) was <1 µM.

As for `COC/C=C/C(=O)N1CCCC[C@H]1c1nc(-c2ccc(C(=O)Nc3ncccn3)cc2)c2c(N)nccn12` [Example 55, (S,E)-4-(8-amino-3-(1-(4-methoxybut-2-enoyl)piperidin-2-yl)imidazo[1,5-a]pyrazin-1-yl)-N-(pyrimidin-2-yl)benzamide], the 50% effective concentration (EC50) was ≥ 1000 nM on FynT enzyme; 100 to 1000 nM on Btk enzyme (His-Btk); ≥ 1 µM at Lck enzyme (setting [2]); ≥ 1000 nM on Src enzyme; ≥ 1 µM on Lyn enzyme (setting [3]). The “EC50 Btk activity values” on Btk enzyme (His-Btk) (setting [1]) was <1 µM.

With `Cc1cc(C(=O)Nc2ccccn2)ccc1-c1nc([C@@H]2CCCCN2C(=O)c2ccnc(Cl)n2)n2ccnc(N)c12` [Example 56, 4-(8-amino-3-((S)-1-(2-chloropyrimidine-4-carbonyl)piperidin-2-yl)imidazo[1,5-a]pyrazin-1-yl)-3-methyl-N-(pyridin-2-yl)benzamide], the EC50 on FynT enzyme is ≥ 1000 nM; on Btk enzyme (His-Btk) it was 10 to 100 nM; at Lck enzyme (setting [2]), ≥ 1 µM; on Src enzyme, ≥ 1000 nM; on Lyn enzyme (setting [3]), ≥ 1 µM. Moreover, the “EC50 Btk activity values” on Btk enzyme (His-Btk) (setting [4]) was <0.1 µM.

As for `COC/C=C/C(=O)N1CCC[C@H]1c1nc(-c2ccc(C(=O)Nc3cc(C)ccn3)cc2)c2c(N)nccn12` [Example 57, (S,E)-4-(8-amino-3-(1-(4-methoxybut-2-enoyl)pyrrolidin-2-yl)imidazo[1,5-a]pyrazin-1-yl)-N-(4-methylpyridin-2-yl)benzamide], the concentration for a half-maximal effect (EC50) at FynT enzyme is ≥ 1000 nM; on Btk enzyme (His-Btk), 10 to 100 nM; at Lck enzyme (setting [2]), ≥ 1 µM; at Src enzyme it was ≥ 1000 nM; at Lyn enzyme (setting [3]), ≥ 1 µM. The “EC50 Btk activity values” at Btk enzyme (His-Btk) (setting [4]) was <0.1 µM.

As to `COC/C=C/C(=O)N1CCC[C@H]1c1nc(-c2ccc(C(=O)Nc3cc(C(C)C)ccn3)cc2)c2c(N)nccn12` [Example 58, (S,E)-4-(8-amino-3-(1-(4-methoxybut-2-enoyl)pyrrolidin-2-yl)imidazo[1,5-a]pyrazin-1-yl)-N-(4-isopropylpyridin-2-yl)benzamide], the EC50 on FynT enzyme is ≥ 1000 nM; at Btk enzyme (His-Btk) it was 10 to 100 nM; at Lck enzyme (setting [2]), ≥ 1 µM; at Src enzyme, ≥ 1000 nM; on Lyn enzyme (setting [3]) it was ≥ 1 µM. In addition, the “EC50 Btk activity values” at Btk enzyme (His-Btk) (setting [4]) is <0.1 µM.

As to `Cc1ccnc(NC(=O)c2ccc(-c3nc([C@@H]4CCCN4C(=O)/C=C/CN(C)C)n4ccnc(N)c34)cc2)c1` [Example 59, (S,E)-4-(8-amino-3-(1-(4-(dimethylamino)but-2-enoyl)pyrrolidin-2-yl)imidazo[1,5-a]pyrazin-1-yl)-N-(4-methylpyridin-2-yl)benzamide], the EC50 at FynT enzyme was ≥ 1000 nM; at Btk enzyme (His-Btk) it was 10 to 100 nM; on Lck enzyme (setting [2]) it was ≥ 1 µM; at Src enzyme it was ≥ 1000 nM; at Lyn enzyme (setting [3]) it was ≥ 1 µM. Besides, on Btk enzyme (His-Btk) (setting [4]), the “EC50 Btk activity values” was <0.1 µM.

For `CC#CC(=O)N1CCC[C@H]1c1nc(-c2ccc(C(=O)Nc3nccs3)cc2)c2c(N)nccn12` [Example 60, (S)-4-(8-amino-3-(1-but-2-ynoylpyrrolidin-2-yl)imidazo[1,5-a]pyrazin-1-yl)-N-(thiazol-2-yl)benzamide], the EC50 at FynT enzyme is ≥ 1000 nM; on Btk enzyme (His-Btk), 10 to 100 nM; at Lck enzyme, 0.1 to 1 µM; at Src enzyme it was ≥ 1000 nM; on Lyn enzyme (EC50 Lyn activity values, 60 min pre-incubation, 2 μM ATP, bin bound in nM) it was ≥ 0.1 µM; on Lyn enzyme (EC50 Lyn activity values, 60 min pre-incubation, 2 μM ATP, bin bound in μM) it was < 1 µM and ≥ 1 µM. The “EC50 Btk activity values” at Btk enzyme (His-Btk) (setting [4]) is <0.1 µM. Moreover, on Lck enzyme (setting [5]), the “EC50 Lck activity values” is <1 µM.

As for `C=CC(=O)N1CCCC[C@H]1c1nc(-c2ccc(C(=O)Nc3cc(CCC)ccn3)cc2)c2c(N)nccn12` [Example 61, (S)-4-(3-(1-acryloylpiperidin-2-yl)-8-aminoimidazo[1,5-a]pyrazin-1-yl)-N-(4-propylpyridin-2-yl)benzamide], the EC50 at FynT enzyme is ≥ 1000 nM; at Btk enzyme (His-Btk) (setting [6]) it was < 10 nM; on Lck enzyme (setting [2]), ≥ 1 µM; on Src enzyme, ≥ 1000 nM; at Lyn enzyme (setting [3]), ≥ 1 µM.

With `C=CC(=O)N1CCC[C@H]1c1nc(-c2ccc(C(=O)Nc3cc(C(F)(F)F)ccn3)cc2)c2c(N)nccn12` [Example 62, (S)-4-(3-(1-acryloylpyrrolidin-2-yl)-8-aminoimidazo[1,5-a]pyrazin-1-yl)-N-(4-(trifluoromethyl)pyridin-2-yl)benzamide], the EC50 at FynT enzyme is ≥ 1000 nM; on Btk enzyme (His-Btk) (setting [6]) it was < 10 nM; at Lck enzyme, 0.1 to 1 µM; at Src enzyme, ≥ 1000 nM; on Lyn enzyme (setting [3]), ≥ 1 µM. For the same molecule, on Lck enzyme (setting [5]), the “EC50 Lck activity values” was <1 µM.

For the molecule `CC#CC(=O)N1CCCC[C@H]1c1nc(-c2ccc(C(=O)Nc3cc(C(F)(F)F)ccn3)cc2)c2c(N)nccn12` [Example 63, (S)-4-(8-amino-3-(1-but-2-ynoylpiperidin-2-yl)imidazo[1,5-a]pyrazin-1-yl)-N-(4-(trifluoromethyl)pyridin-2-yl)benzamide], the concentration giving a half-maximal response (EC50) on FynT enzyme is ≥ 1000 nM; on Btk enzyme (His-Btk) (setting [6]), < 10 nM; on Lck enzyme (setting [2]), ≥ 1 µM; at Src enzyme, ≥ 1000 nM; on Lyn enzyme (setting [3]), ≥ 1 µM.

Consider `CC#CC(=O)N1CCCC[C@H]1c1nc(-c2ccc(C(=O)Nc3cc(CCC)ccn3)cc2)c2c(N)nccn12` [Example 64, (S)-4-(8-amino-3-(1-but-2-ynoylpiperidin-2-yl)imidazo[1,5-a]pyrazin-1-yl)-N-(4-propylpyridin-2-yl)benzamide], for which the 50% effective concentration (EC50) at FynT enzyme is ≥ 1000 nM; at Btk enzyme (His-Btk) (setting [6]) it was < 10 nM; at Lck enzyme, 0.1 to 1 µM; on Src enzyme it was ≥ 1000 nM; on Lyn enzyme (setting [3]), ≥ 1 µM. On Lck enzyme (setting [5]), the “EC50 Lck activity values” was <1 µM.

As for `CC(C)c1ccnc(NC(=O)c2ccc(-c3nc([C@@H]4CCCN4C(=O)/C=C/CN(C)C)n4ccnc(N)c34)cc2)c1` [Example 65, (S,E)-4-(8-amino-3-(1-(4-(dimethylamino)but-2-enoyl)pyrrolidin-2-yl)imidazo[1,5-a]pyrazin-1-yl)-N-(4-isopropylpyridin-2-yl)benzamide], the EC50 is ≥ 1000 nM on FynT enzyme; < 10 nM at Btk enzyme (His-Btk) (setting [6]); ≥ 1 µM on Lck enzyme (setting [2]); ≥ 1000 nM on Src enzyme; ≥ 1 µM at Lyn enzyme (setting [3]).

Regarding `C=CS(=O)(=O)N1CCCC[C@H]1c1nc(-c2ccc(C(=O)Nc3ccccn3)cc2C)c2c(N)nccn12` [Example 66, 4-(8-amino-3-((S)-1-(vinylsulfonyl)piperidin-2-yl)imidazo[1,5-a]pyrazin-1-yl)-3-methyl-N-(pyridin-2-yl)benzamide], the concentration giving a half-maximal response (EC50) at FynT enzyme is ≥ 1000 nM; on Btk enzyme (His-Btk) (setting [6]), < 10 nM; at Lck enzyme (setting [2]) it was ≥ 1 µM; on Src enzyme, ≥ 1000 nM; at Lyn enzyme (setting [3]), ≥ 1 µM.

Consider `CC#CC(=O)N1CCCC[C@H]1c1nc(-c2ccc(C(=O)Nc3cc(CCC)ccn3)c(F)c2)c2c(N)nccn12` [Example 67, (S)-4-(8-amino-3-(1-but-2-ynoylpiperidin-2-yl)imidazo[1,5-a]pyrazin-1-yl)-2-fluoro-N-(4-propylpyridin-2-yl)benzamide], for which the 50% effective concentration (EC50) on FynT enzyme was ≥ 1000 nM; on Btk enzyme (His-Btk) (setting [6]) it was < 10 nM; at Lck enzyme (setting [2]), ≥ 1 µM; at Src enzyme it was ≥ 1000 nM; on Lyn enzyme (setting [3]) it was ≥ 1 µM.

On to `C=CC(=O)N1CCCC[C@H]1c1nc(-c2ccc(C(=O)Nc3ccccn3)cc2C)c2c(N)nccn12` [Example 68, 4-(3-((S)-1-acryloylpiperidin-2-yl)-8-aminoimidazo[1,5-a]pyrazin-1-yl)-3-methyl-N-(pyridin-2-yl)benzamide], for which the 50% effective concentration (EC50) is ≥ 1000 nM on FynT enzyme; 100 to 1000 nM at Btk enzyme (His-Btk); ≥ 1 µM at Lck enzyme (setting [2]); ≥ 1000 nM at Src enzyme; ≥ 1 µM on Lyn enzyme (setting [3]). For the same molecule, the “EC50 Btk activity values” on Btk enzyme (His-Btk) (setting [1]) was <1 µM.

For `CN(C)C/C=C/C(=O)NCc1nc(-c2ccc(C(=O)Nc3ccccn3)cc2)c2c(N)nccn12` [Example 69, (E)-4-(8-amino-3-((4-(dimethylamino)but-2-enamido)methyl)imidazo[1,5-a]pyrazin-1-yl)-N-(pyridin-2-yl)benzamide], the concentration giving a half-maximal response (EC50) at FynT enzyme was ≥ 1000 nM; on Btk enzyme (His-Btk), 10 to 100 nM; at Lck enzyme (setting [2]), ≥ 1 µM; on Src enzyme it was ≥ 1000 nM; on Lyn enzyme (setting [3]), ≥ 1 µM. The “EC50 Btk activity values” at Btk enzyme (His-Btk) (setting [4]) was <0.1 µM.
